From patent US10842801B2, “Optimizing mifepristone absorption” (Corcept Therapeutics, Inc., priority 2011, dated 2020)
Read-outs that look alike come from different tables or passages of the source.

What was measured:
[1] = Food effect studies: pharmacokinetics of mifepristone under fasting and fed conditions; format: in vivo, human; settings: for AUC(0-inf) / Cmax / AUC(0-t): human, plasma, oral; for AUC(0-inf): read-out: AUCinf Geo Mean; for Cmax: read-out: Cmax Geo Mean; for AUC(0-t): read-out: AUC0-24 Geo Mean
Method: Blood is collected from a patient in a vacutainer containing sodium heparin. The blood is centrifuged and the resulting plasma frozen at an appropriate temperature until assay. In some embodiments, the temperature is about -70° C. In other embodiments, other blood components can be collected and stored. Prior to analysis, the plasma is thawed and a fraction of the plasma is mixed with an internal standard in a solvent such as acetonitrile, to obtain a fixed concentration of the standard. In some embodiments, the internal standard can be mifepristone-d4. […] Base is then added to the sample solution. The base can be any amine or ammonium base, such as ammonium hydroxide. […] Solvent is then added to the solution and the mifepristone (along with the internal standard) are extracted from the plasma. […] Following separation and concentration of the organic layer, the sample is reconstituted in a solvent mixture comprising water, acetonitrile and formic acid. The ratio of the solvent components can vary. In some embodiments, the solvent mixture is water:acetonitrile:formic acid (75:25:0.1, v/v/v). […] The sample can then be analyzed by reverse-phase high pressure liquid chromatography (HPLC). In some embodiments, the reverse-phase HPLC is performed using a water:acetonitrile:formic acid (60:40:0.1) mobile phase (isocratic) at a flow rate of 0.3 mL/min. […] The reverse-phase HPLC column can be a phenyl column maintained at 50° C. […] Following elution, the mobile phase can be nebulized using heated nitrogen in a Z-spray source/interface and the ionized compounds detected using a tandem quadrupole mass spectrometer. Mifepristone (molecular weight of 430 g/mol) can be detected at m/z 372.30. The internal standard mifepristone-d4 can be detected at m/z 376.30. The ratio of the mifepristone peak height to the peak height for the internal standard can then be calculated. The plasma concentration of mifepristone is then calculated by comparing the experimental ratio to a standard curve of mifepristone:mifepristone-d4 peak height ratio v. mifepristone concentration. […] In all studies, healthy adults were randomized to a sequence of administration of mifepristone drug product under fasting and fed conditions. […] The test group was comprised of 10 healthy adult subjects who were randomized to receive mifepristone at 600 mg/day for up to 14 days in Cohort 3 of Study CORT-108297-102. For this comparison the PK data after 7 days of dosing were used. […] The meal was given every day at approximately 30 min prior to receiving mifepristone, which was dosed as two 300 mg tablets once daily.

[2] = Plasma drug concentration in different patients given the same dose of mifepristone; format: in vivo, human
[3] = 600 mg single dose, Fed (50% fat) vs Fast, Study 12
[4] = 600 mg/day for 7 days following a breakfast of 34% fat, Day 7
[5] = 600 mg/day x 7 days, Fed (34% fat) vs Fast, C3
[6] = 1200 mg single dose, Fed (50% fat) vs Fast, Study 20
[7] = 1200 mg/day x 7 days, Fed (34% fat) vs Fast, Study 27
[8] = 1200 mg/day, high fat (50%) meal on day 8 after 7 days with typical fat meals
[9] = 600 mg, 600 mg single dose, Fast, healthy adults, Study 12
[10] = 600 mg, 600 mg single dose, Fed 50% fat, healthy adults, Study 12
[11] = 600 mg/day, 600 mg/day x 7 days, Fast, healthy adults, historical Studies C-1073-05 and C-1073-300 Part II (reference for C3)
[12] = 600 mg/day, 600 mg/day x 7 days, Fed 34% fat, healthy adults, Cohort 3 of CORT-108297-102
[13] = 1200 mg, 1200 mg single dose, Fast, healthy adults, Study 20
[14] = 1200 mg, 1200 mg single dose, Fed 50% fat, healthy adults, Study 20
[15] = 1200 mg/day, 1200 mg/day x 7 days, Fed 34% fat, healthy adults, Study 27

CC#C[C@]1(O)CC[C@H]2[C@@H]3CCC4=CC(=O)CCC4=C3[C@@H](c3ccc(N(C)C)cc3)C[C@@]21C [Mifepristone, 17-beta-hydroxy-11-beta-(4-dimethyl-aminophenyl)-17-alpha-(1-propynyl)-estra-4,9-dien-3-one]
AUCinf Ratio of Geometric Means [1, 3]: 1.29 | Cmax Ratio of Geometric Means [1, 3]: 1.19 | increase in AUC0-24 as compared to the same dose in the fasted state [1, 4]: 44% | increase in Cmax as compared to the same dose in the fasted state [1, 4]: 34% | AUC0-24 Ratio of Geometric Means [1, 5]: 1.44 | Cmax Ratio of Geometric Means [1, 5]: 1.34 | AUCinf Ratio of Geometric Means [1, 6]: 1.42 | Cmax Ratio of Geometric Means [1, 6]: 1.30 | mean increase in mifepristone exposure relative to the fasted state ([1]; 1200 mg/day for 7 days with typical fat meals vs 7 days fasted): 65% | Cmax Geo Mean ([1]; 1200 mg/day x 7 days, Fast, healthy adults, Study 27): 3223 ng/mL | AUC0-24 Ratio of Geometric Means [1, 7]: 1.65 | Cmax Ratio of Geometric Means [1, 7]: 1.56 | effect on Cmax of switching to a high fat meal [1, 8]: little or no effect | effect on exposure of switching to a high fat meal [1, 8]: little or no effect | AUC(0-inf) [1, 9]: 104000 ng·h/mL | Cmax [1, 9]: 2310 ng/mL | AUC(0-inf) [1, 10]: 134000 ng·h/mL | Cmax [1, 10]: 2740 ng/mL | AUC(0-t) [1, 11]: 43600 ng·h/mL | Cmax [1, 11]: 3040 ng/mL | AUC(0-t) [1, 12]: 62600 ng·h/mL | Cmax [1, 12]: 4070 ng/mL | AUC(0-inf) [1, 13]: 134000 ng·h/mL | Cmax [1, 13]: 2830 ng/mL | AUC(0-inf) [1, 14]: 191000 ng·h/mL | Cmax [1, 14]: 3660 ng/mL | AUC(0-t) ([1]; 1200 mg/day, 1200 mg/day x 7 days, Fast, healthy adults, Study 27): 44200 ng·h/mL | AUC(0-t) [1, 15]: 72800 ng·h/mL | Cmax [1, 15]: 5040 ng/mL | dose proportionality of exposure and Cmax ([1]; multiple dosing, doses above 600 mg, fasted): strong lack of dose proportionality | difference in plasma drug concentration from one patient to another [2]: ≤ 800%
